Entries after “also recorded” stand apart in the source; their conditions may differ. Non-standard residues stand in square brackets, D forms with d. Residues, ends and D or L forms follow the SMILES beside them. *: point of attachment. Dolaproine = CO[C@@H]([C@@H]1CCCN1)[C@@H](C)C(=O)O; Dil = CC[C@H](C)[C@H](NC)[C@@H](CC(=O)O)OC; X1 = C[C@@H](N*)[C@@H](O)c1ccccc1; NMeV = CN[C@H](C(=O)O)C(C)C
Assays:
[1] = test system: HeLa cells; experiment: Western blot of ER stress (IRE1 and JNK phosphorylation) in MMAE-treated HeLa cells; type: cell-based; details: 100 nM MMAE, 16 hours
Protocol: HeLa cells, a cervical cancer cell line, were cultured in Minimum Essential Medium (MEM) with 10% FBS, 10 mM HEPES, 1 mM sodium pyruvate, 2 mM L-glutamine, penicillin (100U/ml), and streptomycin (100 μg/ml). HeLa cells were treated with 100 nM MMAE for 16 hours and harvested in radioimmunoprecipitation assay buffer (RIPA) buffer for western blot analysis. Treatment with MMAE led to phosphorylation of the serine threonine kinase IRE1, indicating activation of ER stress. Severe ER stress is a prerequisite to the exposure of pro-phagocytic signals on the surface of tumor cells, and can be indicated by activation of JNK signaling by phosphorylated IRE1.

[2] = test system: HeLa cells; experiment: Imaging of RFP-tubulin microtubule network and ER in HeLa cells in the presence of MMAE; type: cell-based; details: 100 nM MMAE
Protocol: HeLa cells were transduced with a baculovirus encoding RFP-labeled Tubulin (CellLight Tubulin-RFP, ThermoFisher Scientific) and an ER-binding dye (ER-ID Green, Enzo Life Sciences). Cells were treated with 100 nM MMAE and imaged over time in the present of MMAE. Within 2 hours, fragmentation and disassembly of the microtubule network became evident, concurrent with the breakdown of the perinuclear organized ER lattice (FIGS. 2A and 2B). The condensed and mislocalized ER skeleton indicated severe ER stress within 8 hours.

[3] = test system: HeLa cells; experiment: ATP and HMGB1 secretion from MMAE-treated HeLa cells; type: cell-based; details: 100 nM MMAE, over 24 hours, vs untreated cells
From the text: Induction of ICD is also characterized by the secretion of ATP and HMGB1. Extracellular ATP serves as a strong chemotactic signal, promoting immune cell migration to the tumor site. Upon arrival, extracellular HMGB1 signals through various pro-inflammatory receptors (TLR2, TLR4, RAGE) to activate antigen-presenting cells, thereby promoting immune activity within the tumor.

[4] = test system: murine tumor cells that stably express human TF; experiment: Immunization of Balb/c mice with drug-killed human TF positive murine tumor cells, then tumor challenge (syngeneic model); type: in vivo; details: mice immunized with drug-killed human TF positive tumor cells
Protocol: Mouse tumor cells are transfected with plasmid constructs encoding human tissue factor (TF) and sgRNA-guided Cas9 nuclease (sgRNA/Cas9) to generate a murine cell line that expresses the human TF. Fluorescence activated cell sorting (FACS) yields a clonal population of murine tumor cells that stably express human TF, these cells are then treated with 1 μg to 5 μg per ml of tisotumab vedotin or 100 nM of MMAE for 4 days. In order to prepare dying cells for immunization, treated murine tumor cells are overlaid atop Histopaque, and centrifuged at 2000 g for 30 minutes. Dead and dying cells are pelleted underneath the Histopaque layer, and viability assessed by trypan blue exclusion. A sample with approximately <20% live cells as measured by trypan blue exclusion is obtained. Flash-frozen tumor cells are prepared by submerging the cells in liquid nitrogen for 10 seconds, followed by immersion in 37° C. water until completely thawed. The liquid nitrogen freeze-thaw process is repeated 5 times. Dead and dying human TF positive tumor cells are resuspended in phosphate buffered saline (PBS) and 2×10^6 cells are injected into the peritoneum of immune-competent Balb/c mice. Seven days later, mice receive a second immunization with dead and dying cells prepared in the same manner.
Fourteen days after initial immunization with the dead and dying human TF positive tumor cells, mice are subcutaneously implanted with 5×10^6 wild-type tumor cells and monitored for tumor growth. […] As these effects occur in the absence of any administered therapeutic agent, the administration of cells killed by tisotumab vedotin or MMAE is sufficient to generate long-lasting protective immune memory against subsequent tumor cell challenge. Protective immune memory is amplified by treating these mice with tisotumab vedotin in combination with an antibody that binds to murine PD-1.

[5] = test system: Tissue Factor positive cell lines; experiment: Cell death and ATP/HMGB1 release from Tissue Factor positive cell lines; type: cell-based; details: Tissue Factor positive cells
From the text: Auristatin ADC payloads disrupt the microtubule networks resulting in altered ER localization and function, which ultimately results in ER stress.

[6] = test system: HPAFII (pancreatic carcinoma) and MDA-MB-231 (breast carcinoma) cells; experiment: Western blot of ER stress pathways in HPAFII and MDA-MB-231 cells; type: cell-based
Protocol: Induction of cell death and release of ICD danger signals occurs concomitant with initiation of an ER stress response. Two Tissue Factor positive cell lines, HPAFII (pancreatic carcinoma) and MDA-MB-231 (breast cell carcinoma) were exposed to tisotumab vedotin ADC, an Isotype-MMAE ADC (H00-MMAE, IgG1 MMAE), or free MMAE for 18 hours and induction of ER stress monitored by western blot analysis. Phosphorylation of inositol-requiring transmembrane kinase/endonuclease 1 (IRE1) was detected after treatment with tisotumab vedotin ADC or MMAE free drug (FIG. 6). […] The ability for auristatins to prime the immune system to recognize tumor antigens opens the door for a myriad of combinatorial therapeutic options.

[7] = test system: human peripheral blood mononuclear cells (PBMCs); experiment: Monocyte/macrophage activation in human PBMCs fed drug-killed MDA-MB-231 cells; type: cell-based
From the text: FIGS. 7A and 7B is a series of graphs in which Tissue Factor positive MDA-MB-231 cells killed with various agents were fed to human peripheral blood mononuclear cells (PBMCs) and immune activation assessed by increased expression of activations markers on innate CD14+ monocyte/macrophages and induction of chemokine and cytokine production.
Immunogenic cell death, as mediated by MMAE, is regulated cell death that activates adaptive immune responses against antigens from dead and dying tumor cells, and allows for the generation of robust innate immune cell activation and subsequent cytotoxic T cell responses targeted towards specific tumor cell antigens. […] Furthermore, these monocyte/macrophages conditioned by ICD-killed cells promote activation of T cells, as evidenced by production of signature inflammatory cytokines associated with cytotoxic T cell responses.

[8] = test system: human peripheral blood mononuclear cells (PBMCs); experiment: T cell activation in CSFE labeled human PBMCs fed drug-killed MDA-MB-231 cells, with or without pembrolizumab; type: cell-based
From the text: Induction of the innate immune response following exposure to cancer cells undergoing ICD sets up secondary T cell activation, which can be enhanced by concomitant pembrolizumab treatment.

[9] = test system: MDA-MB-231 xenograft; experiment: MDA-MB-231 xenograft model in humanized NSG mice; type: in vivo; details: pembrolizumab alone, first dose 10 mg/kg, then 5 mg/kg every five days, IP
Protocol: The in vivo anti-tumor efficacy of tisotumab vedotin in combination with an anti-PD-1 monoclonal antibody was evaluated in NOD.Cg-PrkdC^scid Il2rg^tm1Wj1/SzJ (NSG) immunodeficient mice (The Jackson Laboratory, Stock No. 005557), humanized by engraftment with human CD34^+ hematopoietic stem cells (Jackson Laboratories, Sacramento). Mice were subcutaneously inoculated with 5×10^6 MDA-MB-231 cells (breast adenocarcinoma; American Tissue Culture Collection (ATCC), cat. no. HTB-26), in 100 μL phosphate-buffered saline (PBS). Before inoculation, cells were cultured in DMEM with high glucose and HEPES without L-glutamine (Lonza, cat. no. BE12-709F), 10% (v/v) donor bovine serum with iron New Zealand Origin (Thermo Fisher Scientific, DBSI, cat. no. 10371-029), 2 mM L-glutamine (Lonza, cat. no. BE17-605E), 1 mM Na-pyruvate (Lonza, cat. no. BE13-115E), MEM non-essential amino acids (Life Technologies, cat. no. 11140) and 1% (v/v) penicillin/streptomycin (Lonza, cat. no. DE17-603E), in CellSTACK culture chambers (Corning, cat. no. 3313).
Tumor size was determined by caliper measurement at least two times a week and tumor volume was calculated as 0.52×length×width^2. When tumors reached the size of 100 mm^3 mice were randomized in 7 groups (8 mice per treatment group) based on mouse cohort and tumor size (Table 1). Mice were treated with tisotumab vedotin alone (1 mg/kg or 0.5 mg/kg), intravenously, weekly for a maximum of five treatments, or in combination with an anti-PD-1 antibody (i.e., pembrolizumab, KEYTRUDA®, 50 mg concentrate, Merck & Co., Inc., Kenilworth, N.J. USA) or with anti-PD-1 antibody alone. The first dose of the anti-PD-1 antibody (i.e., pembrolizumab) was 10 mg/kg, followed by 5 mg/kg every five days for a maximum of six treatments. Mice in control groups were administered 1 mg/kg of IgG1 isotype control antibody or IgG1 isotype control antibody conjugated to MMAE intravenously, weekly for a maximum of five treatments (Table 1). The IgG1 isotype control antibody is the b12 antibody which is known to bind to HIV-1 gp120. […]

[10] = test system: cervical cancer; details: cited from earlier work
[11] = managed with interruptions of pembrolizumab, corticosteroids and/or other supportive care; cited from earlier work
[12] = HPAFII and MDA-MB-231 cells, 18 hours
[13] = PBMCs fed drug-exposed MDA-MB-231 cells, 48 hours

In the case of `CC[C@H](C)[C@@H]([C@@H](CC(=O)N1CCC[C@H]1[C@H](OC)[C@@H](C)C(=O)N[C@H](C)[C@@H](O)c1ccccc1)OC)N(C)C(=O)[C@@H](NC(=O)[C@@H](NC)C(C)C)C(C)C` [MMAE, Monomethyl auristatin E, reference compound] (H-[NMeV]V[Dil][Dolaproine]-X1), the “phosphorylation of IRE1 and JNK (ER stress)” value [1] is reported as “led to phosphorylation of both IRE1 and JNK; also recorded: elicited severe ER stress by phosphorylation of IRE1 and JNK”, the “microtubule network and ER localization” value [2] is reported as “led to disassembly of the microtubule network and subsequent ER mislocalization” and the “time to fragmentation and disassembly of the microtubule network and breakdown of the ER lattice” value [2] is reported as ≤ 2 h. For the same compound, the “time to severe ER stress (condensed and mislocalized ER skeleton)” value [2] was ≤ 8 h, the “secretion of ATP” value [3] was “increased secretion” and the “secretion of HMGB1” value [3] was “increased secretion”. The “survival after challenge with wild-type tumor cells” value [4] was “increased survival”, the “tumor growth after challenge with wild-type tumor cells” value [4] was “delayed tumor growth” and the ATP secretion/release [5] was “drove robust A) ATP secretion; also recorded: specific to tisotumab vedotin ADC and MMAE treatment”. The HMGB1 release [5] was “HMGB1 release; also recorded: specific to tisotumab vedotin ADC and MMAE treatment”, the “activation of JNK (phosphorylation)” value [6, 12] was “increased phosphorylation” and the “activation of PERK pathway (ATF4 cleavage)” value [6, 12] was “upregulation of ATF4 cleavage”. For the same compound, the “phosphorylation of IRE1” value [6, 12] was “detected”, the “activation of ER stress pathways (phosphorylation of IRE and JNK, cleavage of ATF4)” value ([6]; HPAFII or MDA-MB-231 cells, 16 hours) was “trigger multiple ER stress pathways” and the “monocyte/macrophage activation by CD86 expression” value ([7]; CD14+ monocyte/macrophages, flow cytometry, PBMCs fed killed MDA-MB-231 cells, compared to IgG1-MMAE ADC or tisotumab alone) was “drove monocyte/macrophage activations”. The “release of innate chemokines” value ([7]; PBMCs fed killed MDA-MB-231 cells, compared to IgG1-MMAE ADC or tisotumab alone) was “induced release of innate chemokines including MIP10”, the “chemotactic and inflammatory mediators from monocyte/macrophages” value ([7]; after uptake of killed Tissue Factor positive cells) was “elicit strong chemotactic and inflammatory mediators” and the “T cell proliferation (CSFE dilution)” value [8, 13] was “drove T cell proliferation”. The “production of IFNγ” value [8, 13] was “increased; also recorded: production of T cell specific cytokines” and the “production of IL12p70” value [8, 13] was “increased; also recorded: production of T cell specific cytokines”.

In the case of “pembrolizumab: anti-PD-1 monoclonal antibody, checkpoint inhibitor, also known as KEYTRUDA® [reference compound]”, the “tumor burden as assessed by tumor volume” value [9] is reported as “hardly reduced tumor burden”, the “T cell proliferation driven by tisotumab vedotin or MMAE killed cells, effect of added pembrolizumab” value ([8]; 2 mg/ml of pembrolizumab, 48 hours) is reported as “enhanced” and the “cytokine production after tisotumab vedotin or MMAE killed cells, effect of concomitant pembrolizumab” value ([8]; IL12p70 and IFNγ, 48 hours) is reported as “increased”. For the same compound, the “secondary T cell responses after tisotumab vedotin induced ICD, effect of pembrolizumab” value ([8]; concomitant pembrolizumab treatment) was “can be amplified”, the objective response rate ([10]; 200 mg Q3W, 82 patients with previously treated, advanced cervical cancer) was 12% and the “objective response rate (ORR)” value ([10]; 2L+ PD-L1-positive recurrent or metastatic cervical cancer, 42% previously treated with bevacizumab) was 14%. The “reversibility of immune-related AEs (irAEs)” value [11] was “most irAEs were reversible”.

Source: US20230027495A1, “METHODS OF TREATING CANCER WITH A COMBINATION OF AN ANTI-PD-1 ANTIBODY AND AN ANTI-TISSUE FACTOR ANTIBODY-DRUG CONJUGATE” (Genmab A/S, priority 2019, published 2023)
